The record followed here is patent US12281118B2, “Nitrogen-containing fused heterocyclic SHP2 inhibitor compound, preparation method, and use” (SHANGHAI RINGENE BIOPHARMA CO., LTD., priority 2018, dated 2025).

Read-outs that look alike come from different tables or passages of the source.

The nature of data set [1]: In vivo pharmacokinetic parameters. Also on record: AUC: unit not given here. To be noted: plasma, po; for AUC: read-out: Area under the curve AUC; for bioavailability: read-out: Bioavailability F; for half-life: read-out: Half-life T1/2 (converted); for Cmax: read-out: Maximum plasma concentration Cmax. As for the experimental part:
Dividing 6 SPF-grade laboratory animals into two groups, and preparing the test compound to a suitable solution or suspension; intravenously administering animals in one group, and orally administering animals in the other group. Collecting blood via jugular vein puncture at approximately 0.2 mL/time point for each sample, anticoagulating with sodium heparin, wherein the time points for blood collection is as follows: pre-dose, and 5, 15 and 30 min, and 1, 2, 4, 6, 8, and 24 h post-dose; placing the collected blood samples on ice, separating plasma by centrifugation (centrifugation conditions: 8,000 rpm, 6 min, 2-8° C.), and storing the collected plasma at −80° C. before analysis. Analyzing plasma samples using LC-MS/MS.
Based on the plasma concentration data of the drug, pharmacokinetic parameters such as AUC0-t, AUC0-∞, MRT0-∞, Cmax, Tmax, T1/2 and Vd of a test sample, as well as mean and standard deviations thereof are calculated using a pharmacokinetic calculation software WinNonlin 5.2 noncompartmental model. In addition, the bioavailability (F) is calculated by the following formula.
For samples with concentrations below the lower limit of quantification, samples taken before reaching Cmax should be calculated as zero for calculations of the pharmacokinetic parameter, and samples taken at sampling points after reaching Cmax should be calculated as non-quantifiable (BLQ) (specific results are shown in Table 3).

Data set [2] concerns the target PTP1B (Homo sapiens (Human), UniProt P18031). As to the kind of experiment: Inhibitory activity against different phosphatases. The data set is classed as biochemical. Conditions: read-out: IC50 against phosphatase PTP1B. As for the experimental part: (§1) Allowing compound solutions (10 μM, 3× dilution at eight gradients) of examples reacted with phosphatases such as SHP1, LMW-PTP, LYP, MKP3, PTP1B, PTPN2, PTPN6, VHR, CDC25A, PTPRR, etc. according to a similar method shown in Test Example 1 to test the inhibitory activity of the compounds on the phosphatases described above.

Data set [3] concerns the target SHP1 (Homo sapiens (Human), UniProt P29350). As to the kind of experiment: Inhibitory activity against different phosphatases. The data set is classed as biochemical. Conditions: read-out: IC50 against phosphatase SHP1. As for the experimental part:
as §1

Data set [4] deals with CYP3A4 (Homo sapiens (Human), UniProt P08684). In words: biochemical. In kind it is in vitro ADME. As for the experimental part: (§2) Direct inhibition test (DI test): Incubating 100 μL of human liver microsomes (final concentration 0.2 mg/mL) containing NADPH (final concentration 1 mM), 10 μM of compound, a positive inhibitor cocktail (ketoconazole 10 μM, quinidine 10 μM, sulfaphenazole 100 μM, a-naphthoflavone 10 μM, and tranylcypromine 1,000 μM), a negative control (BPS containing 0.1% dimethyl sulfoxide) and a mixed probe substrate (midazolam 10 μM, testosterone 100 μM, dextromethorphan 10 μM, diclofenac 20 μM, phenacetin 100 μM, and mephenytoin 100 μM) for direct inhibition, and terminating the reaction after 20 min of the incubation. Calculating the relative enzyme activity by measuring the relative production of metabolites.

For data set [5], the target named is CYP2C19 (Homo sapiens (Human), UniProt P33261). In words: biochemical. The data set is classed as in vitro ADME. As for the experimental part: as §2
Data set [6] deals with CYP2C9 (Homo sapiens (Human), UniProt P11712). As to the kind of experiment: biochemical. In kind it is in vitro ADME. The procedure: as §2
The target in data set [7] is CYP2D6 (Homo sapiens (Human), UniProt P10635). As to the kind of experiment: biochemical. In kind it is in vitro ADME. As for the experimental part: as §2
Data set [8] can be described thus: in vitro. The data set is classed as in vitro ADME. Conditions: 1 μM compound. As for the experimental part: Metabolic stability test: Incubating 150 μL of liver microsomes (final concentration 0.5 mg/mL) containing NADPH (final concentration 1 mM), 1 μM of test compound and a positive control midazolam or a negative control atenolol for metabolic stability, terminating the reaction with acetonitrile containing tinidazole at 0 min, 5 min, 10 min and 30 min, respectively, vortexing for 10 min, centrifuging at 15,000 rmp for 10 min, and injecting 50 μL of supernatant into a 96-well plate. Calculating the metabolic stability of the compounds by determining the relative reduction of a parent drug.

The subject of data set [9] is KYSE520 tumor cell xenograft. In words: Growth inhibition of xenograft in nude mice. The data set is classed as in vivo. To be noted: orally, once daily, for 21 consecutive days. An excerpt: (§3) Experimental method: 1) Culturing MV 4-11/KYSE520/NCI-H358 cells in a culture medium containing 10% fetal bovine serum. Harvesting tumor cells at an exponential growth phase, and resuspending in PBS to suitable concentrations for subcutaneous tumor inoculation in nude mice. 2) Subcutaneously inoculating 2-8×10^7 tumor cells at the right back of a mouse, and resuspending the cells in PBS and matrigel (1:1); observing tumor growth regularly, and randomizing mice for administration based on tumor size and mouse body weight when tumors grow to a mean volume of ˜120 mm^3-[…]. 3) Defining the day of tumor cell inoculation as Day 0. Prior to the start of dosing, weighing all animals and measuring the tumor volume with a vernier caliper. 3) Administering orally compound of examples (prepared with water for injection containing 1% Tween80 to a desired concentration for use) at a given dose for three consecutive weeks, and giving an equal amount of solvent animals in a solvent control group. Measuring diameters of the xenograft twice a week throughout the experiment, and weighing the mice were at the same time.
(§4) The calculation formula of tumor volume (TV) is: TV=½×a×b^2, wherein a and b represent length and width, respectively. The relative tumor volume (RTV) is calculated based on the measured results using the formula: RTV=Vt/V0, wherein V0 is the tumor volume measured at the time of dosing in separate cages (i.e., Day 0) and Vt is the tumor volume at each measurement. The anti-tumor activity is evaluated by the following measures: 1) relative tumor proliferation rate T/C (%), which is calculated by the following formula: T/C (%)=(TRTV/CRTV)×100%, wherein TRTV: RTV of ae treatment group; CRTV: RTV of a negative control group; 2) inhibition rate of tumor volume growth GI %, which is calculated by the following formula: GI %=[1−(TVt−TV0)/(CVt−[…])]×100%, wherein TVt is the tumor volume at each measurement in the treatment group; TV0 is the tumor volume obtained at the time of dosing in separate cages in the treatment group; CVt is the tumor volume at each measurement in the control group; CV0 is the tumor volume obtained at the time of dosing in separate cages in the control group (specific data are shown in Table 4).

In data set [10] the test system is MV 4-11 tumor cell xenograft. As to the kind of experiment: Growth inhibition of xenograft in nude mice. The data set is classed as in vivo. Conditions: orally, once daily, for 21 consecutive days.
Text: as §3, §4

Where [11] appears, read: monkey, monkeys liver microsomes.

Chain of CYP2C9 (P11712 whole entry): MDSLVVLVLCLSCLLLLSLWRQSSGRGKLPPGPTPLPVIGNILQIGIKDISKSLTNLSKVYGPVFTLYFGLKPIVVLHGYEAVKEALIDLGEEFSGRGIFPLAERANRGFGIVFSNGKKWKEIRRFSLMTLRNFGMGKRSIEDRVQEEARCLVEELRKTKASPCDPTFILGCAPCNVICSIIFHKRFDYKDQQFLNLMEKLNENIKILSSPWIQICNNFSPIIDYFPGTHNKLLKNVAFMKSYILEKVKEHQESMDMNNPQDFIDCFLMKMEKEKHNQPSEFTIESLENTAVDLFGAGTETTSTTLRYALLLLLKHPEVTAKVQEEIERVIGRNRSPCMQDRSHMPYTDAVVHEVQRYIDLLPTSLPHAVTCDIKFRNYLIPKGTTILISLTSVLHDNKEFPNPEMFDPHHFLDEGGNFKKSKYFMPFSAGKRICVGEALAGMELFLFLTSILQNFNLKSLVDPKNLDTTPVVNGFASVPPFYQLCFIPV
Chain of CYP2C19 (P33261 whole entry): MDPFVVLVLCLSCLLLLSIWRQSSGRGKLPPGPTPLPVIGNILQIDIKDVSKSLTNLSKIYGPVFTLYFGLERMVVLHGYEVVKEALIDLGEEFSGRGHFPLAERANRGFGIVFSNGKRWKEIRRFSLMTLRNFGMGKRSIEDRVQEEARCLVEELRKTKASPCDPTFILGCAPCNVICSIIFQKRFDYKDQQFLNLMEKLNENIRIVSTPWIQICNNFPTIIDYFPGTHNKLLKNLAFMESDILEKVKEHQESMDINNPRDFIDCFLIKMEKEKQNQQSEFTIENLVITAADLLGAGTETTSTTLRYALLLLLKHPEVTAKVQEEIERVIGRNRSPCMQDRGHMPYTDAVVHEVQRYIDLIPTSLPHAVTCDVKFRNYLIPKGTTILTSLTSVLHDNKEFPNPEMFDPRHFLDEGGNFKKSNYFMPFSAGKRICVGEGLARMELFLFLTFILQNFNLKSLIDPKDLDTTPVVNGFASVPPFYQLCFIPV
Chain of CYP2D6 (P10635 whole entry): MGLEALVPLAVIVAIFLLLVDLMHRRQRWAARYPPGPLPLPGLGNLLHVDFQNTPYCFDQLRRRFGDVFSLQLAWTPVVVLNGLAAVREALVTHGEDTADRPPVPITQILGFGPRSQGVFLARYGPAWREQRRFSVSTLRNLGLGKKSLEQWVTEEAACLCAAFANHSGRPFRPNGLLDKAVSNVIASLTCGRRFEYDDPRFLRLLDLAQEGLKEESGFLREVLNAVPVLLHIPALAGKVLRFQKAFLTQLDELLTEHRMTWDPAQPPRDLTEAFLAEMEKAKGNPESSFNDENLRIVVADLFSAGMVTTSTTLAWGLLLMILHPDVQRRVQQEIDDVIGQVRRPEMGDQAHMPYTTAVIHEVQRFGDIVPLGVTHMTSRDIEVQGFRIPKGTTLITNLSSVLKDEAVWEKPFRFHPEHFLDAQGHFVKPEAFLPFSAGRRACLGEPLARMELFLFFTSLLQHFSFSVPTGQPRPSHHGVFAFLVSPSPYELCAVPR
Chain of PTP1B (P18031 whole entry, species assumed): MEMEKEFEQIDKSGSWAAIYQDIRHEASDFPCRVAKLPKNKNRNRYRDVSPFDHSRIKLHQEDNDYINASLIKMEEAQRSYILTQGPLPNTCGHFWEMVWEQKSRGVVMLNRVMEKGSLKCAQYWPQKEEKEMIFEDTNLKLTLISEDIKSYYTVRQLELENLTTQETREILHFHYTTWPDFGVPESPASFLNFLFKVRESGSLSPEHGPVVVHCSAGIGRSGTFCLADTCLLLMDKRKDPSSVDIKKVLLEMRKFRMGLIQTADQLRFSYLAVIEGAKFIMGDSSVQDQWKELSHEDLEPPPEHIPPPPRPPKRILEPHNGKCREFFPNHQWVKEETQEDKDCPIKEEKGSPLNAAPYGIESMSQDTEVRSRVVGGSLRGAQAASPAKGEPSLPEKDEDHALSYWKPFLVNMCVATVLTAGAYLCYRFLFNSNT
Chain of CYP3A4 (P08684 whole entry): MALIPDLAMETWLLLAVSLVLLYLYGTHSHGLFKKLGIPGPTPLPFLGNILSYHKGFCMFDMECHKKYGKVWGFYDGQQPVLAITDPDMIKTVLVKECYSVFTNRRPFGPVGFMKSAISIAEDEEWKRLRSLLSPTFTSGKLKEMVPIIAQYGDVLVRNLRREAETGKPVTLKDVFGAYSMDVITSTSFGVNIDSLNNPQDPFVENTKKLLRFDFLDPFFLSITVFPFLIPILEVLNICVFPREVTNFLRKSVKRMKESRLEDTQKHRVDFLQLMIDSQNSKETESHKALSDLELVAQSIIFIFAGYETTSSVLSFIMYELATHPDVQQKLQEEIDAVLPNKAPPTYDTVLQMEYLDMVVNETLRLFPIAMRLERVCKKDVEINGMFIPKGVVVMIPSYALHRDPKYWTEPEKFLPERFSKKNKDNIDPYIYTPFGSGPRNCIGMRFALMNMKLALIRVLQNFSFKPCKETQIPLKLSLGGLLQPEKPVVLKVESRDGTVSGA
Chain of SHP1 (P29350 whole entry): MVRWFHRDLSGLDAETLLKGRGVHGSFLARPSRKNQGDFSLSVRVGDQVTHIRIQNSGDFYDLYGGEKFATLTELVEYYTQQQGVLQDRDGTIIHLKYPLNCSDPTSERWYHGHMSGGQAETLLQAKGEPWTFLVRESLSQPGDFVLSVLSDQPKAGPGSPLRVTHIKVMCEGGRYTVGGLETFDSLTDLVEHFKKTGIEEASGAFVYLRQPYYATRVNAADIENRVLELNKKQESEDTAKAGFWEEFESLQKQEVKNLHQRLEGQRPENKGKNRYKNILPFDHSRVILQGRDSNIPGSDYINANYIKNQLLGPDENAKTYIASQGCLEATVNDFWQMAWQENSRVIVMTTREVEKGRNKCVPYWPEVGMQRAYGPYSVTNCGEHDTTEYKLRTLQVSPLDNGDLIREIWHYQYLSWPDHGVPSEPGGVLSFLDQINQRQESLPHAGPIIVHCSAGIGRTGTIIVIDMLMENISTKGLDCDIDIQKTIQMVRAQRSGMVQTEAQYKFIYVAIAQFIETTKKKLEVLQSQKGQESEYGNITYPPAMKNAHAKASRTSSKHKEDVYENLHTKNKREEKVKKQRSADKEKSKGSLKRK

As for `Cc1nc(N2CCC3(CC2)Cc2ccccc2[C@H]3N)n2ccnc2c1Sc1ccnc(N)c1Cl` [Example 1, (S)-1′-(8-((2-amino-3-chloropyridin-4-yl)thio)-7-methylimidazo [1,2-c]pyrimidin-5-yl)-1,3-dihydrospiro [indene-2,4′-piperidine]-1-amine], the AUC in data set [1] (Beagle Dog, 5 mg/kg) turned out to be 18200; in data set [1] (Mouse, 5 mg/kg), 5840; in data set [1] (Rat, (so in the source)), 3540. For the same molecule, the bioavailability in data set [1] (Beagle Dog, 5 mg/kg) was found to be 162%; in [1] (Mouse, 5 mg/kg) it was 61%; in [1] (Rat, 5 g/kg (so in the source)), 64%. Moreover, the half-life was 10.9 h in data set [1] (Beagle Dog, 5 mg/kg); 11.8 h in data set [1] (Mouse, 5 mg/kg); 22.3 h in [1] (Rat, 5 g/kg (so in the source)). The Cmax in data set [1] (Beagle Dog, 5 mg/kg) was 907 nM; in data set [1] (Mouse, 5 mg/kg), 306 nM; in data set [1] (Rat, 5 g/kg (so in the source)) it was 211 nM. Moreover, the half-inhibitory concentration (IC50) (usually the point on the concentration scale where inhibition reaches its midpoint) in data set [2] was above 0.5 µM; in data set [3] it was above 0.5 µM; in [4], above 25 µM; in [5] it was above 25 µM; in data set [6], above 25 µM; in data set [7], above 25 µM. Also, the half-life at 1 μM in data set [8] (dog, dogs liver microsomes) is above 1 h; in data set [8] (human liver microsomes) it was above 1 h; in [8] (setting [11]), above 1 h; in data set [8] (mouse, mice liver microsomes), above 1 h; in [8] (rat, rats liver microsomes), above 1 h. In addition, the T/C (commonly the ratio of treated to control) is given as 30% in [9] (2 mg/kg), 18% in data set [9] (6 mg/kg), 28% in data set [10] (2 mg/kg) and 3.0% in data set [10] (5 mg/kg).

Consider `Nc1nccc(Sc2c(N)nc(N3CCC4(CC3)Cc3ccccc3[C@H]4N)n3ccnc23)c1Cl` [Example 4, (S)-1′-(7-amino-8-((2-amino-3-chloropyridin-4-yl)thio)imidazo [1,2-c]pyrimidin-5-yl)-1,3-dihydrospiro [indene-2,4′-piperidine]-1-amine], for which, in data set [1] (Mouse, 5 mg/kg), the AUC is 557. The bioavailability in data set [1] (Mouse, 5 mg/kg) stood at 20%. Moreover, the half-life in data set [1] (Mouse, 5 mg/kg) is 10.9 h. Besides, in data set [1] (Mouse, 5 mg/kg), the Cmax is 79 nM. The concentration for half-maximal inhibition (IC50) in data set [2] was above 0.5 µM; in data set [3] it was above 0.5 µM; in [4], above 25 µM; in [5], above 25 µM; in data set [6], above 25 µM; in data set [7], above 25 µM. Also, the half-life at 1 μM is above 1 h in data set [8] (dog, dogs liver microsomes); above 1 h in [8] (human liver microsomes); above 1 h in [8] (setting [11]); above 1 h in [8] (mouse, mice liver microsomes); above 1 h in data set [8] (rat, rats liver microsomes).
